In brackets after ≈: the same amount, converted by molar mass.
Key:
Escherichia coli [1] = test: Antibacterial activity against Escherichia coli assessed as diameter of inhibition zone measured after 24 hrs by agar well diffusion method; format: functional; further: test concentration or dose not given here
Escherichia coli [2] = test: Antibacterial activity against Escherichia coli after 24 hrs by UV-vis spectrophotometric method; format: functional
[3] = Cytotoxicity against rat PC12 cells assessed as cell viability at CC50 after 24 hrs by MTT assay relative to control; format: cell-based, PC-12; settings: read-out: Activity
Staphylococcus aureus [4] = test: Antibacterial activity against Staphylococcus aureus assessed as diameter of inhibition zone measured after 24 hrs by agar well diffusion method; format: functional; further: test concentration or dose not given here
Pseudomonas aeruginosa [5] = test: Antibacterial activity against Pseudomonas aeruginosa after 24 hrs by UV-vis spectrophotometric method; format: functional
Bacillus subtilis [6] = test: Antibacterial activity against Bacillus subtilis assessed as diameter of inhibition zone measured after 24 hrs by agar well diffusion method; format: functional; further: test concentration or dose not given here
Staphylococcus aureus [7] = test: Antibacterial activity against Staphylococcus aureus after 24 hrs by UV-vis spectrophotometric method; format: functional
PC-12 [8] = test: Neuroprotective activity against H2O2-induced cytotoxicity in rat PC12 cells assessed as increase in cell viability pretreated for 24 hrs followed by H2O2 addition by MTT assay; format: functional, cell-based
Bacillus subtilis [9] = test: Antibacterial activity against Bacillus subtilis after 24 hrs by UV-vis spectrophotometric method; format: functional
[10] = Cytotoxicity against rat PC12 cells after 24 hrs by MTT assay; format: cell-based, PC-12; settings: for MNTC at 24 h: read-out: MNCC
PC-12 [11] = test: Neuroprotective activity against H2O2-induced cytotoxicity in rat PC12 cells assessed as cell viability at EC50 pretreated for 24 hrs followed by H2O2 addition by MTT assay relative to control; format: functional
Pseudomonas aeruginosa [12] = test: Antibacterial activity against Pseudomonas aeruginosa assessed as diameter of inhibition zone measured after 24 hrs by agar well diffusion method; format: functional; further: test concentration or dose not given here
[13] = Cytotoxicity against rat PC12 cells assessed as cell viability at MNTC after 24 hrs by MTT assay relative to control; format: cell-based, PC-12; settings: read-out: Activity

| Compound | diameter of the inhibition zone (DIZ) (Escherichia coli [1]) [mm] | MIC (Escherichia coli [2]) [µg/mL] | viability at 24 h [3] [%] | diameter of the inhibition zone (DIZ) (Staphylococcus aureus [4]) [mm] | MIC (Pseudomonas aeruginosa [5]) [µg/mL] | diameter of the inhibition zone (DIZ) (Bacillus subtilis [6]) [mm] | MIC (Staphylococcus aureus [7]) [µg/mL] | Activity (PC-12 [8]) | EC50 (PC-12 [8]) [µg/mL] | MIC (Bacillus subtilis [9]) [µg/mL] | CC50 at 24 h [10] [µg/mL] | MNTC at 24 h [10] [µg/mL] | Activity (PC-12 [11]) [%] | diameter of the inhibition zone (DIZ) (Pseudomonas aeruginosa [12]) [mm] | viability at 24 h [13] [%] |
| --- | --- | --- | --- | --- | --- | --- | --- | --- | --- | --- | --- | --- | --- | --- | --- |
| Cc1c(-c2nnc(-c3ccc([N+](=O)[O-])cc3)o2)sc2ncnc(N3CCCCC3)c12 | 14 | 0.0361 (≈ 0.0854 µM) | 49.9 | 8 | 0.0382 (≈ 0.0904 µM) | 18 | 0.044 (≈ 0.104 µM) | Dose-dependent effect | 11.9 (≈ 28.1 µM) | 0.0641 (≈ 0.152 µM) | 145 (≈ 343 µM) | 125 | 74.78 | 17 | 99 |
| Cc1c(-c2nnc(-c3ccc(Cl)cc3)o2)sc2ncnc(N3CCOCC3)c12 | 13 | 0.0172 (≈ 0.0416 µM) | 51.1 | 13 | 0.0144 (≈ 0.0348 µM) | 18 | 0.0136 (≈ 0.0329 µM) | Dose-dependent effect | 28.2 (≈ 68 µM) | 0.0144 (≈ 0.0348 µM) | 168 (≈ 406 µM) | 120 | 77.18 | 18 | 98.3 |
| Cc1c(-c2nnc(-c3ccc([N+](=O)[O-])cc3)o2)sc2ncnc(N3CCOCC3)c12 | 16 | 0.0382 (≈ 0.09 µM) | 49.2 | 16 | 0.0266 (≈ 0.0627 µM) | 13 | 0.046 (≈ 0.108 µM) | Dose-dependent effect | 16.2 (≈ 38.1 µM) | 0.0381 (≈ 0.0898 µM) | 94.2 (≈ 222 µM) | 80 | 75.11 | 16 | 99.2 |
| COc1ccc(-c2nnc(-c3sc4ncnc(N5CCOCC5)c4c3C)o2)cc1 | 12 | 0.012 (≈ 0.0293 µM) | 51.9 | 12 | 0.044 (≈ 0.107 µM) | 13 | 0.0132 (≈ 0.0322 µM) | Dose-dependent effect | 28.2 (≈ 68.8 µM) | 0.0112 (≈ 0.0274 µM) | 140 (≈ 342 µM) | 120 | 75.15 | 16 | 98.3 |
| Cc1c(C(=O)OCC#CCN2CCN(c3ccc(Br)cc3C#N)CC2)sc2ncnc(N3CCOCC3)c12 | 13 | 0.0324 (≈ 0.0544 µM) | 49 | 10 | 0.0128 (≈ 0.0215 µM) | 12 | 0.526 (≈ 0.883 µM) | Dose-dependent effect | 32.3 (≈ 54.2 µM) | 0.0628 (≈ 0.105 µM) | 122 (≈ 205 µM) | 100 | 75.44 | 12 | 99.6 |
| Cc1c(-c2nnc(-c3ccccc3)o2)sc2ncnc(N3CCCCC3)c12 | 10 | 0.0132 (≈ 0.035 µM) | 54.1 | 11 | 0.0144 (≈ 0.0381 µM) | 14 | 0.0125 (≈ 0.0331 µM) | Dose-dependent effect | 22.1 (≈ 58.6 µM) | 0.0128 (≈ 0.0339 µM) | 146 (≈ 387 µM) | 100 | 76.88 | 13 | 99.2 |
| Cc1ccc(C#N)c(N2CCN(CC#CCOC(=O)c3sc4ncnc(N5CCOCC5)c4c3C)CC2)c1 | 13 | 0.0324 (≈ 0.0611 µM) | 49.1 | 7 | 0.0624 (≈ 0.118 µM) | 13 | 0.062 (≈ 0.117 µM) | Dose-dependent effect | 41.3 (≈ 77.9 µM) | 0.0156 (≈ 0.0294 µM) | 146 (≈ 275 µM) | 118 | 74.98 | 14 | 98.5 |
| Cc1c(-c2nnc(-c3ccccc3)o2)sc2ncnc(N3CCOCC3)c12 | 16 | 0.0211 (≈ 0.0556 µM) | 50.4 | 16 | 0.0186 (≈ 0.049 µM) | 12 | 0.0412 (≈ 0.109 µM) | Dose-dependent effect | 10.6 (≈ 27.9 µM) | 0.0366 (≈ 0.0965 µM) | 200 (≈ 527 µM) | 160 | 76.18 | 11 | 99.5 |
| GENTAMICIN | – | 0.0212 | – | – | 0.0242 | – | 0.0422 | – | – | 0.0386 | – | – | – | – | – |
| COc1ccc(N2CCN(CC#CCOC(=O)c3sc4ncnc(N5CCOCC5)c4c3C)CC2)cc1 | 12 | 0.12 (≈ 0.23 µM) | 49.1 | 8 | 0.062 (≈ 0.119 µM) | 12 | 0.062 (≈ 0.119 µM) | Dose-dependent effect | 36.2 (≈ 69.3 µM) | 0.062 (≈ 0.119 µM) | 144 (≈ 276 µM) | 60 | 74.89 | 14 | 98.1 |
| Cc1c(C(=O)OCC#CCN2CCN(c3cc(C4CC4)ccc3C#N)CC2)sc2ncnc(N3CCOCC3)c12 | 12 | 0.186 (≈ 0.334 µM) | 49.9 | 13 | 0.0634 (≈ 0.114 µM) | 10 | 0.312 (≈ 0.56 µM) | Dose-dependent effect | 12.4 (≈ 22.3 µM) | 0.124 (≈ 0.223 µM) | 198 (≈ 356 µM) | 150 | 75.15 | 13 | 99.1 |
| Cc1c(C(=O)OCC#CCN2CCN(c3ccc(Br)cc3C#N)CC2)sc2ncnc(N3CCCCC3)c12 | 14 | 0.0244 (≈ 0.0411 µM) | 51.2 | 13 | 0.0112 (≈ 0.0189 µM) | 16 | 0.0124 (≈ 0.0209 µM) | Dose-dependent effect | 40.9 (≈ 68.8 µM) | 0.0186 (≈ 0.0313 µM) | 136 (≈ 230 µM) | 96 | 76.18 | 15 | 99.1 |
| Cc1c(-c2nnc(-c3ccc(Cl)cc3)o2)sc2ncnc(N3CCCCC3)c12 | 15 | 0.186 (≈ 0.452 µM) | 48.9 | 16 | 0.144 (≈ 0.35 µM) | 13 | 0.0224 (≈ 0.0544 µM) | Dose-dependent effect | 21.8 (≈ 53 µM) | 0.0284 (≈ 0.0689 µM) | 151 (≈ 366 µM) | 136 | 75.04 | 14 | 98.2 |
| COc1cccc(N2CCN(CC#CCOC(=O)c3sc4ncnc(N5CCOCC5)c4c3C)CC2)c1 | 14 | 0.501 (≈ 0.96 µM) | 50 | 12 | 0.0124 (≈ 0.0238 µM) | 16 | 0.0311 (≈ 0.0596 µM) | Dose-dependent effect | 38.4 (≈ 73.6 µM) | 0.012 (≈ 0.023 µM) | 161 (≈ 308 µM) | 114 | 76.78 | 14 | 98.1 |
| Cc1ccc(C#N)c(N2CCN(CC#CCOC(=O)c3sc4ncnc(N5CCCCC5)c4c3C)CC2)c1 | 15 | 0.0144 (≈ 0.0272 µM) | 49 | 13 | 0.0624 (≈ 0.118 µM) | 13 | 0.122 (≈ 0.231 µM) | Dose-dependent effect | 38.2 (≈ 72.2 µM) | 0.0312 (≈ 0.059 µM) | 114 (≈ 216 µM) | 96 | 76.04 | 14 | 98.2 |
| Cc1c(C(=O)OCC#CCN2CCN(c3cc(C4CC4)ccc3C#N)CC2)sc2ncnc(N3CCCCC3)c12 | 17 | 0.521 (≈ 0.939 µM) | 50.1 | 14 | 0.0686 (≈ 0.124 µM) | 16 | 0.0422 (≈ 0.0761 µM) | Dose-dependent effect | 16.2 (≈ 29.2 µM) | 0.0581 (≈ 0.105 µM) | 148 (≈ 267 µM) | 110 | 75.14 | 17 | 99.6 |
| COc1ccc(-c2nnc(-c3sc4ncnc(N5CCCCC5)c4c3C)o2)cc1 | 17 | 0.0486 (≈ 0.119 µM) | 49.9 | 10 | 0.0448 (≈ 0.11 µM) | 14 | 0.0366 (≈ 0.0898 µM) | Dose-dependent effect | 20.1 (≈ 49.4 µM) | 0.0642 (≈ 0.158 µM) | 124 (≈ 305 µM) | 100 | 75.12 | 12 | 99 |

From ChEMBL document CHEMBL4219188, “Design, synthesis, neuroprotective, antibacterial activities and docking studies of novel thieno[2,3-d]pyrimidine-alkyne Mannich base and oxadiazole hybrids” (Bioorg Med Chem Lett, 2018)
